Experimental data: paper PMC9133015 (Nature Communications, 2022)
“And” between values parts separate entries of the source, which are not always exact repeats. Equal values may be shown once. Read-outs that look alike come from different tables or passages of the source.

Columns and labels:
Assay in all cases: Kinase inhibitor specificity profiling (Reaction Biology Corporation)
Format in all cases: biochemical
Design in all cases: % Enzyme Activity (relative to DMSO controls): concentration or dose not given beside the values
[1] = molecular target: T1, panel of 370 protein kinases (Homo sapiens, UniProt P27361); details: 2 h, kinase ERK1; read-out: % Enzyme Activity (relative to DMSO controls)
T1 construct: purchased Reaction Biology Corporation (assay service)

[2] = molecular target: T2, panel of 370 protein kinases (Homo sapiens, UniProt P53779); details: kinase JNK3
T2 construct: purchased Reaction Biology Corporation (assay service)

[3] = molecular target: T3, panel of 370 protein kinases (Homo sapiens, UniProt P36897); details: 2 h, kinase ALK5/TGFBR1; read-out: % Enzyme Activity (relative to DMSO controls)
T3 construct: purchased Reaction Biology Corporation (assay service)

[4] = molecular target: T4, panel of 370 protein kinases (Homo sapiens, UniProt Q86Y07); details: 2 h, kinase VRK2; read-out: % Enzyme Activity (relative to DMSO controls)
T4 construct: purchased Reaction Biology Corporation (assay service)

[5] = molecular target: T5, panel of 370 protein kinases (Homo sapiens, UniProt O60307); details: 2 h, kinase MAST3; read-out: % Enzyme Activity (relative to DMSO controls)
T5 construct: purchased Reaction Biology Corporation (assay service)

[6] = molecular target: T6, panel of 370 protein kinases (Homo sapiens, UniProt Q96RR4); details: 2 h, kinase CAMKK2; read-out: % Enzyme Activity (relative to DMSO controls)
T6 construct: purchased Reaction Biology Corporation (assay service)

[7] = molecular target: T7, panel of 370 protein kinases (Homo sapiens, UniProt P51812); details: 2 h, kinase RSK2; read-out: % Enzyme Activity (relative to DMSO controls)
T7 construct: purchased Reaction Biology Corporation (assay service)

[8] = molecular target: T8, panel of 370 protein kinases (Homo sapiens, UniProt Q13043); details: kinase MST1/STK4
T8 construct: purchased Reaction Biology Corporation (assay service)

[9] = molecular target: T9, panel of 370 protein kinases (Homo sapiens, UniProt P49674); details: 2 h, kinase CK1epsilon; read-out: % Enzyme Activity (relative to DMSO controls)
T9 construct: purchased Reaction Biology Corporation (assay service)

[10] = molecular target: T10, panel of 370 protein kinases (Homo sapiens, UniProt P51957); details: 2 h, kinase NEK4; read-out: % Enzyme Activity (relative to DMSO controls)
T10 construct: purchased Reaction Biology Corporation (assay service)

[11] = molecular target: T11, panel of 370 protein kinases (Homo sapiens, UniProt Q9Y6E0); details: kinase MST3/STK24
T11 construct: purchased Reaction Biology Corporation (assay service)

[12] = molecular target: T12, panel of 370 protein kinases (Homo sapiens, UniProt P10398); details: 2 h, kinase ARAF; read-out: % Enzyme Activity (relative to DMSO controls)
T12 construct: purchased Reaction Biology Corporation (assay service)

[13] = molecular target: T13, panel of 370 protein kinases (Homo sapiens, UniProt O95747); details: 2 h, kinase OSR1/OXSR1; read-out: % Enzyme Activity (relative to DMSO controls)
T13 construct: purchased Reaction Biology Corporation (assay service)

[14] = molecular target: T14, panel of 370 protein kinases (Homo sapiens, UniProt P51813); details: 2 h, kinase BMX/ETK; read-out: % Enzyme Activity (relative to DMSO controls)
T14 construct: purchased Reaction Biology Corporation (assay service)

[15] = molecular target: T15, panel of 370 protein kinases (Homo sapiens, UniProt Q9NR20); details: 2 h, read-out: % Enzyme Activity (relative to DMSO controls), kinase DYRK4
T15 construct: purchased Reaction Biology Corporation (assay service)

[16] = molecular target: T16, panel of 370 protein kinases (Homo sapiens, UniProt Q00535); details: 2 h, read-out: % Enzyme Activity (relative to DMSO controls)
T16 construct: purchased Reaction Biology Corporation (assay service)

[17] = molecular target: T17, panel of 370 protein kinases (Homo sapiens, UniProt Q9P1W9); details: 2 h, kinase PIM2; read-out: % Enzyme Activity (relative to DMSO controls)
T17 construct: purchased Reaction Biology Corporation (assay service)

[18] = molecular target: T18, panel of 370 protein kinases (Homo sapiens, UniProt P30530); details: 2 h, kinase AXL; read-out: % Enzyme Activity (relative to DMSO controls)
T18 construct: purchased Reaction Biology Corporation (assay service)

[19] = molecular target: T19, panel of 370 protein kinases (Homo sapiens, UniProt Q9H4B4); details: 2 h, kinase PLK3; read-out: % Enzyme Activity (relative to DMSO controls)
T19 construct: purchased Reaction Biology Corporation (assay service)

[20] = molecular target: T20, panel of 370 protein kinases (Homo sapiens, UniProt P22612); details: 2 h, kinase PKAcg; read-out: % Enzyme Activity (relative to DMSO controls)
T20 construct: purchased Reaction Biology Corporation (assay service)

[21] = molecular target: T21, panel of 370 protein kinases (Homo sapiens, UniProt O15146); details: 2 h, kinase MUSK; read-out: % Enzyme Activity (relative to DMSO controls)
T21 construct: purchased Reaction Biology Corporation (assay service)

[22] = molecular target: T22, panel of 370 protein kinases (Homo sapiens, UniProt Q9H093); details: kinase SNARK/NUAK2
T22 construct: purchased Reaction Biology Corporation (assay service)
T22 sequence (Q9H093 whole entry): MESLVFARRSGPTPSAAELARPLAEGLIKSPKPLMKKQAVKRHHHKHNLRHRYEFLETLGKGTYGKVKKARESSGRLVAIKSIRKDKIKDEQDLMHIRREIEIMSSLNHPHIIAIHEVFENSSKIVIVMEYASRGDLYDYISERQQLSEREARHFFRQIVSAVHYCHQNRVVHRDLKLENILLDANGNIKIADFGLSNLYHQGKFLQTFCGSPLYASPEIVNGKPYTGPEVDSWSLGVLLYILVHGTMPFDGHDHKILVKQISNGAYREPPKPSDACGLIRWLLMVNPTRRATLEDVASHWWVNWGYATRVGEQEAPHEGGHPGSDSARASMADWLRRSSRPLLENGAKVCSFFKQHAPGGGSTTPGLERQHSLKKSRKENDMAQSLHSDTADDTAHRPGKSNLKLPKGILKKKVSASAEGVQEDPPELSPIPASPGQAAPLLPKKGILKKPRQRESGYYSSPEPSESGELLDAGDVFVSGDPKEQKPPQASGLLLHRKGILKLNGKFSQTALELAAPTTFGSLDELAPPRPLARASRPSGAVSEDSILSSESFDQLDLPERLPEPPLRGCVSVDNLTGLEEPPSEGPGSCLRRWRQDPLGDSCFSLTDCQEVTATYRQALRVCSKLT

T2 sequence (P53779 whole entry): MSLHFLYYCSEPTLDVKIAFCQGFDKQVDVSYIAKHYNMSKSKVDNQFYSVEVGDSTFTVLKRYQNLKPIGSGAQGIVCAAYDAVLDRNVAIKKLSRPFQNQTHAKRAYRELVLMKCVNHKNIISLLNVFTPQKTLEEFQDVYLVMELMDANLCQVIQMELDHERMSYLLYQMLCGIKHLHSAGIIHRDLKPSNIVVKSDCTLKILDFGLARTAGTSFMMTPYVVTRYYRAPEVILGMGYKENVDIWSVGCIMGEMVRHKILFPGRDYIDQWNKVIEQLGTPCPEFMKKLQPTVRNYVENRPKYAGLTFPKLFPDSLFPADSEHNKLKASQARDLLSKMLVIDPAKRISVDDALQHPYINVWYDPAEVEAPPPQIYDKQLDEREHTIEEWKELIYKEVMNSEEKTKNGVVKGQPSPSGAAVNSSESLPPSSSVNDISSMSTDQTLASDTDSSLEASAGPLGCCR
T8 sequence (Q13043 whole entry): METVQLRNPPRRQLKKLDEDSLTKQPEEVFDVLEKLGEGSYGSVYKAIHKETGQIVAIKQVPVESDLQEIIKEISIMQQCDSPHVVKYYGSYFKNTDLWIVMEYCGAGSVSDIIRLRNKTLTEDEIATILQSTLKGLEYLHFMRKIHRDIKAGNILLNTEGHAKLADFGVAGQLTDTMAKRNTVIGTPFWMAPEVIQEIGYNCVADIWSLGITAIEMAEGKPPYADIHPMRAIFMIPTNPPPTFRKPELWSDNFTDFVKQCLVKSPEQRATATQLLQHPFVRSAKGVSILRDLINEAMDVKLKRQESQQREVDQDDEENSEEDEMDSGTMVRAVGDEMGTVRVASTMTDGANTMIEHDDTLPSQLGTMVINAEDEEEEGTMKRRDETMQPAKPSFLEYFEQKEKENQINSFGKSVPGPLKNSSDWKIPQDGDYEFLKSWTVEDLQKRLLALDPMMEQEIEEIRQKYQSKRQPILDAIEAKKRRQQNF
T11 sequence (Q9Y6E0 whole entry): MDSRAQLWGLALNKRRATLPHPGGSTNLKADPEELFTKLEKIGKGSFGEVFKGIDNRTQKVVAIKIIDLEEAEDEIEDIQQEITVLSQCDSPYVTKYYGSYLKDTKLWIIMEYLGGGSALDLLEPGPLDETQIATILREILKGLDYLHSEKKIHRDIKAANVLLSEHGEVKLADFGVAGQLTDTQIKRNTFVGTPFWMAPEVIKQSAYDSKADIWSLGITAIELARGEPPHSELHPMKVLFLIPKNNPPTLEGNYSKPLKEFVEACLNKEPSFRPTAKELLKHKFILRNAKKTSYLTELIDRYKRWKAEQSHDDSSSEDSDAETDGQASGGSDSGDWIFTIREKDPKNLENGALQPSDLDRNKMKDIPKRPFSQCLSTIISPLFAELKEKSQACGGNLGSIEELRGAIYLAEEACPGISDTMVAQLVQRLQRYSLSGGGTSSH
T16 sequence (Q00535 whole entry): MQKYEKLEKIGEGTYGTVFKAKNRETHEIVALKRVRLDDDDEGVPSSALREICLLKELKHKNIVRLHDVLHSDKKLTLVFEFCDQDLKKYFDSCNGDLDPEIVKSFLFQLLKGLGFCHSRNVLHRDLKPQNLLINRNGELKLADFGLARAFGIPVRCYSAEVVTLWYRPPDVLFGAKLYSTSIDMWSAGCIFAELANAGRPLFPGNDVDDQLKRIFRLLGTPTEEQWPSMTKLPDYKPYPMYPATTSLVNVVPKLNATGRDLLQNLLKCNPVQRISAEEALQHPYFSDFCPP
T3 sequence (P36897 34-503): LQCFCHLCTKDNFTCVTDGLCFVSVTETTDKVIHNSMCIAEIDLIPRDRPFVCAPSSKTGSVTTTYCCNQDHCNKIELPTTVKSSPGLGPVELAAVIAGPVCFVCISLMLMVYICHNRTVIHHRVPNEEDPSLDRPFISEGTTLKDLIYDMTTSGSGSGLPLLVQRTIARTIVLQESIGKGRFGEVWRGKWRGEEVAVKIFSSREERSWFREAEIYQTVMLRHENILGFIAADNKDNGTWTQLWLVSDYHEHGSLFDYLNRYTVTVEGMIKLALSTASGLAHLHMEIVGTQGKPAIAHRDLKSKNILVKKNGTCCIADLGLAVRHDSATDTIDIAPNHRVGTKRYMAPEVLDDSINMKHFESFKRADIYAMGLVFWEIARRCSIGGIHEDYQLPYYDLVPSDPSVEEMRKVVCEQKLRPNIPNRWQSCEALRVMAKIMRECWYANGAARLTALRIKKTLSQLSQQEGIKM
T12 sequence (P10398 whole entry): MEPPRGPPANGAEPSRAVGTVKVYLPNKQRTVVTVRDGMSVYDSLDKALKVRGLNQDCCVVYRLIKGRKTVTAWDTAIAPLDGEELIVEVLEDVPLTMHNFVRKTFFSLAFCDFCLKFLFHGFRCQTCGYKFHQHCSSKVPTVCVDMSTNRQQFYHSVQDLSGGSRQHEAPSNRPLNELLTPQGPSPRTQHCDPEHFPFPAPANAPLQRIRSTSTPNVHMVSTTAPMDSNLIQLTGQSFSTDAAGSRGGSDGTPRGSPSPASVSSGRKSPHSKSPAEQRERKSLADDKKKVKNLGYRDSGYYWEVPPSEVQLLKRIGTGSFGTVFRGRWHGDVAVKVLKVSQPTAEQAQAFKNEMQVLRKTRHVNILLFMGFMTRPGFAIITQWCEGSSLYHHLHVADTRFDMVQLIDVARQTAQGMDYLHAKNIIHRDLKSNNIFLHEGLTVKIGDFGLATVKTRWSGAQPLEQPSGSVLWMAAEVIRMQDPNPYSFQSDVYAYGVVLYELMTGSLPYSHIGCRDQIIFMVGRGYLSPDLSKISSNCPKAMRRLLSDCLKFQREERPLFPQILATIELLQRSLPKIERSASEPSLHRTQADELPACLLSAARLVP
T15 sequence (Q9NR20 whole entry): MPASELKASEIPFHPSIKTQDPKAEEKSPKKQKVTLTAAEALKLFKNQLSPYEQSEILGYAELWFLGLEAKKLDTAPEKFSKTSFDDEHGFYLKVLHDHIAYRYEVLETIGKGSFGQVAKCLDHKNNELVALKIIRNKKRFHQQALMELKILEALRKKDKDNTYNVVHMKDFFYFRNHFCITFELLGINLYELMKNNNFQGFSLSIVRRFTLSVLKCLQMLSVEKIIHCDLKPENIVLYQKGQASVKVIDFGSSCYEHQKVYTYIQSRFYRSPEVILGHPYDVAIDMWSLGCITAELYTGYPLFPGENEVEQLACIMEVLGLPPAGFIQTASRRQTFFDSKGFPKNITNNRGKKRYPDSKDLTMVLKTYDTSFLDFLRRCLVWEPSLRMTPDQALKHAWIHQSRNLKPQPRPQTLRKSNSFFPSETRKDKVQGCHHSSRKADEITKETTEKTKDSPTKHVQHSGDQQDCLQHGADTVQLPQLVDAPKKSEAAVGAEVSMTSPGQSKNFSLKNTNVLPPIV
T10 sequence (P51957 whole entry): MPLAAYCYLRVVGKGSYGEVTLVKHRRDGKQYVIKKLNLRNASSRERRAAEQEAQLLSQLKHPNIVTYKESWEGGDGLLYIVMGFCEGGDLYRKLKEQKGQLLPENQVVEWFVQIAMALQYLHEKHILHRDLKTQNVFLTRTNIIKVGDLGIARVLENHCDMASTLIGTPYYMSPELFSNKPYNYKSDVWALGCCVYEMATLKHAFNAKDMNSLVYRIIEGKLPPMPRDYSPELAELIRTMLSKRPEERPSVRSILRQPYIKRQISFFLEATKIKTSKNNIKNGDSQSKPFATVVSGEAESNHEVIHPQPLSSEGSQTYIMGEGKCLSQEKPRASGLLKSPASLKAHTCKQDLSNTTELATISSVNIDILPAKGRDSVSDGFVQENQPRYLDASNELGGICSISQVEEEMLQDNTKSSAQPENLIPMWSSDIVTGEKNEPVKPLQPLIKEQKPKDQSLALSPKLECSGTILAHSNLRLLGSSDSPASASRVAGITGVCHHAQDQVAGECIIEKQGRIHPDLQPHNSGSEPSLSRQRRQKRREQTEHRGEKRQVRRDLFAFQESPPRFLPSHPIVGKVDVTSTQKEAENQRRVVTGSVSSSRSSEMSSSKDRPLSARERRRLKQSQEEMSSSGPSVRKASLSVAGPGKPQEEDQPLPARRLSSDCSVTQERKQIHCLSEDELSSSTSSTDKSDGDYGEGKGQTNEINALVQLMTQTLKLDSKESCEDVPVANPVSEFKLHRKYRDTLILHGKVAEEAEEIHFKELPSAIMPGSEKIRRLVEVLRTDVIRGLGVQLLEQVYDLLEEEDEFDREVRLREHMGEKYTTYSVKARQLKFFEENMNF

## CCN1CCN(C(=O)c2ccc(Nc3ncc(F)c(-c4ccc5nc(N(C)C)sc5c4)n3)nc2)CC1 [YK-2-69]
[1]
  remaining activity at 1 µM: 101%
[2]
  % Enzyme Activity (relative to DMSO controls): 84.96% and 83.74%
[3]
  remaining activity at 1 µM: 115%
[4]
  remaining activity at 1 µM: 93.1%
[5]
  remaining activity at 1 µM: 88.1%
[6]
  remaining activity at 1 µM: 94.6%
[7]
  remaining activity at 1 µM: 74.5%
[8]
  % Enzyme Activity (relative to DMSO controls): 107.26% and 103.88%
[9]
  remaining activity at 1 µM: 111%
[10]
  remaining activity at 1 µM: 112%
[11]
  % Enzyme Activity (relative to DMSO controls): 107.35% and 104.50%
[12]
  remaining activity at 1 µM: 90.6%
[13]
  remaining activity at 1 µM: 89.2%
[14]
  remaining activity at 1 µM: 80.6%
[15]
  remaining activity at 1 µM: 50%
[16]; kinase CDK5/P25
  remaining activity at 1 µM: 92.2%
[16]; kinase CDK5/p35
  remaining activity at 1 µM: 90%
[17]
  remaining activity at 1 µM: 90.4%
[18]
  remaining activity at 1 µM: 94.3%
[19]
  remaining activity at 1 µM: 99.7%
[20]
  remaining activity at 1 µM: 96.9%
[21]
  remaining activity at 1 µM: 89.2%
[22]
  % Enzyme Activity (relative to DMSO controls): 95.57% and 95.00%
